Laboratory results taken from ChEMBL document CHEMBL1158976, “Efficient Isolation of Glycosidase Inhibitory Stilbene Glycosides from Rheum palmatum” (J Nat Prod, 1991).
Converted amounts (≈) assume the structure as drawn. The source made the active and inactive calls. The rule behind the calls is not given here.

Assays:
[1] = Inhibition of yeast alpha-glucosidase; set-up: species or system Saccharomyces cerevisiae
[2] = test system: Biomphalaria glabrata; assay: Molluscicidal activity against Biomphalaria glabrata at 200 ppm; type: functional, organism-based

Row | IC50 [1] [µg/mL] | Structure (SMILES) | Activity [2]
1 | 280 (≈ 692 µM) | COc1ccc(/C=C/c2cc(O)cc(O[C@@H]3O[C@H](CO)[C@@H](O)[C@H](O)[C@H]3O)c2)cc1 | inactive
2 | 600 (≈ 1430 µM) | COc1ccc(/C=C/c2cc(O)cc(O[C@@H]3O[C@H](CO)[C@@H](O)[C@H](O)[C@H]3O)c2)cc1O [RHAPONTIN] | inactive
